# Reference: PMC7407158, “Reprogramming of the Antibacterial Drug Vancomycin Results in Potent Antiviral Agents Devoid of Antibacterial Activity” (Pharmaceuticals, 2020)
# Legend:
# [1] = system: human coronavirus 229E; assay: Coronavirus 229E virus yield reduction, RT-qPCR of viral RNA in supernatant, HEL cells; type: cell-based; details: day 4 p.i.
# Experimental: To assess inhibition of human coronavirus 229E replication, HEL cells were infected and treated with 1:2 serial compound dilutions. The plate contained three virus controls (receiving no compound) and two cell controls (receiving no virus and no compound). At day 4 p.i., supernatants were frozen at −80 °C to determine the virus yield by one-step RT-qPCR assay. Two microliters supernatant was mixed with 11 µl lysis mix containing lysis enhancer and resuspension buffer at a 1:10 ratio (CellsDirect One-Step RT-qPCR kit; Invitrogen), and heated for 10 min at 75 °C. Five microliters of lysate was transferred to a PCR plate containing 9.75 µl RT-qPCR mix (CellsDirect One-Step RT-qPCR) and 0.25 µl Superscript III RT/Platinum Taq enzyme, and coronavirus-229E N-gene specific primers and probe (forward primer 5′-[…] -3′; reverse primer 5′-[…] -3′; probe 5′-FAM-[…]-ZEN-[…] -IBFQ-3′). The RT-qPCR program consisted of 15 min at 50 °C, 2 min at 95 °C, and 50 cycles of 15 s at 95 °C and 45 s at 60 °C. An N-gene plasmid standard was included for absolute quantification.
# [2] = system: E. faecalis ATCC 29212; assay: Broth microdilution MIC, E. faecalis ATCC 29212; type: cell-based; details: Enterococcus faecalis, ATCC29212; E. faecalis ATCC 29212; broth microdilution; read-out: In Vitro MIC
# Experimental: (§1) Antibacterial tests were carried out by the broth microdilution method on a panel of eight Gram-positive bacterial strains, using vancomycin and teicoplanin as reference compounds.
# [3] = system: influenza A or B viruses; assay: Anti-influenza virus activity in MDCK cells, MTS assay, overall for the three influenza A or B viruses; type: cell-based, Influenza A and B viruses
# [4] = system: A/PR/8/34 virus; type: cell-based, Influenza A virus
# [5] = system: human coronavirus 229E; type: cell-based; details: 25 µM compound (non-toxic concentration); HEL cells
# [6] = system: HEL, human embryonic lung fibroblast cells; details: read-out: CC50 HEL; mock-infected HEL cells, MTS assay
# [7] = system: S. aureus MRSA ATCC 33591; assay: Broth microdilution MIC, S. aureus MRSA ATCC 33591; type: cell-based; details: Staphylococcus aureus, read-out: In Vitro MIC
# Experimental: as §1
# [8] = system: S. epidermidis mecA; assay: Broth microdilution MIC, S. epidermidis mecA; type: cell-based; details: Staphylococcus epidermidis, read-out: In Vitro MIC
# Experimental: as §1
# [9] = system: S. aureus MSSA ATCC 29213; assay: Broth microdilution MIC, S. aureus MSSA ATCC 29213; type: cell-based; details: Staphylococcus aureus; S. aureus MSSA ATCC 29213; broth microdilution; read-out: In Vitro MIC
# Experimental: as §1
# [10] = system: S. epidermidis ATCC 35984; assay: Broth microdilution MIC, S. epidermidis ATCC 35984; type: cell-based; details: Staphylococcus epidermidis, ATCC35984; S. epidermidis ATCC 35984; broth microdilution; read-out: In Vitro MIC
# Experimental: as §1
# [11] = system: E. faecalis 15,376 VanA; assay: Broth microdilution MIC, E. faecalis 15,376 VanA; type: cell-based; details: Enterococcus faecalis, read-out: In Vitro MIC
# Experimental: as §1
# [12] = system: E. faecalis ATCC 51,299 VanB; assay: Broth microdilution MIC, E. faecalis ATCC 51,299 VanB; type: cell-based; details: Enterococcus faecalis, ATCC51, read-out: In Vitro MIC
# Experimental: as §1
# [13] = system: MDCK cells; details: read-out: CC50 (50% cytotoxic concentration), mock-infected, MTS cell viability assay, three days
# [14] = system: Vero, African Green monkey kidney cells; details: read-out: CC50 Vero; mock-infected Vero cells, MTS assay
# [15] = system: B. subtilis ATCC 6633; assay: Broth microdilution MIC, B. subtilis ATCC 6633; type: cell-based; details: Bacillus subtilis, ATCC6633; B. subtilis ATCC 6633; broth microdilution; read-out: In Vitro MIC
# Experimental: as §1
# [16] = system: HeLa, human cervix carcinoma cells; details: read-out: CC50 HeLa; mock-infected HeLa cells, MTS assay
# [17] = system: Zika virus (strain MR766); assay: CPE reduction, MTS assay, Zika virus in Vero cells; type: cell-based; details: protection against virus-induced CPE, read-out: Antiviral EC50 Zika Virus
# [18] = in vitro; details: human
# [19] = in vitro; details: African green monkey
# [20] = system: yellow fever virus (vaccine strain 17D); assay: microbe, parasite or virus in culture; type: cell-based; details: Vero, read-out: Antiviral EC50 Yellow Fever Virus
# [21] = in vitro; details: human; remark: listed apart in the source
# [22] = system: Influenza A/H3N2 (A/Victoria/361/11); assay: Influenza CPE reduction in MDCK cells, MTS assay, A/H3N2; type: cell-based; details: Influenza A virus, H3N2, MDCK, read-out: Antiviral EC50 Influenza A/H3N2
# [23] = system: Influenza B (B/Ned/537/05); assay: Influenza CPE reduction in MDCK cells, MTS assay, influenza B; type: cell-based; details: Influenza B virus, inhibition of virus-induced CPE by MTS assay, read-out: Antiviral EC50 Influenza B
# [24] = system: respiratory syncytial virus (RSV, strain Long); assay: CPE reduction, MTS assay, RSV in HeLa cells; type: cell-based; details: human respiratory syncytial virus, read-out: Antiviral EC50 RSV
# [25] = system: Influenza A/H1N1 (A/Ned/378/05); assay: Influenza CPE reduction in MDCK cells, MTS assay, A/H1N1; type: cell-based; details: Influenza A virus, H1N1, MDCK, read-out: Antiviral EC50 Influenza A/H1N1
structure (smiles),measurement,setting,value
CCCCCCCCCCOCc1cn(CCOCCOCCOCCOCc2cn(C3C(=O)NC(CC(N)=O)C(=O)NC4C(=O)NC5C(=O)NC(C(=O)NC(C(=O)O)c6cc(O)cc(O)c6-c6cc5ccc6O)C(O)c5ccc(c(Cl)c5)Oc5cc4cc(c5O)Oc4ccc(cc4Cl)C3O)nn2)nn1 (stereo not drawn) [Compound 6],reduction of the viral RNA copy number in the supernatant,[1]; 25 µM compound,1000 fold
same,EC99 value for reduction of virus yield,[1]; RT-qPCR of supernatant,20 µM
same,MIC,[2],32 µg/mL
same,anti-influenza virus activity (in words),[3],robust activity
same,virus-induced cytopathic effect (CPE) upon microscopic inspection,[4],no virus-induced cytopathic effect (CPE) was observed
same,coronavirus 229E-induced cytopathicity observed microscopically,[5],no coronavirus 229E-induced cytopathicity could be observed microscopically
same,CC50,[6],> 100 µM
same,MIC,[7],128 µg/mL
same,MIC,[8],32 µg/mL
same,MIC,[9],128 µg/mL
same,MIC,[10],32 µg/mL
same,MIC,[11],128 µg/mL
same,MIC,[12],128 µg/mL
same,CC50,[13],41 µM
same,CC50,[14],> 100 µM
same,MIC,[15],32 µg/mL
same,CC50,[16],> 100 µM
COc1c(C)c2c(c(O)c1C/C=C(\C)CCC(=O)O)C(=O)OC2 [Mycophenolic acid],EC50,[17],0.8 µM
same,CC50,[18],> 100 µM
same,CC50,[19],> 100 µM
same,EC50,[20],0.7 µM
same,CC50,[21],> 100 µM
NC(=O)c1ncn([C@@H]2O[C@H](CO)[C@@H](O)[C@H]2O)n1 [Ribavirin],EC50,[22],6.4 µM
same,EC50,[23],7.2 µM
same,EC50,[24],5 µM
same,CC50,[18],> 250 µM
same,CC50,[19],> 250 µM
same,EC50,[25],7 µM
same,EC50,[20],119 µM
same,CC50,[21],> 250 µM
